# Results from PubChem BioAssay AID1963826 (Molecular Pharmacology Branch, DTP, NCI, 2024).
# System: 926638-142-R-J1-PDC complex spheroid viability
# Test: Anticancer human tumor 926638-142-R-J1-PDC patient-derived endometrial carcinoma cell line growth inhibition [POLQ]
# Details: for IC50: curve of first compound; for viability, T/C: stronger effect = lower value
# Outline: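 Three-cell-type spheroids modelling solid tumor plus stroma served as the readout system; POL inhibitors were tested individually and in combination, concentration ranges set by clinical Cmax where known.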
# [1] = second compound 0.0316 µM, first compound 0.0316 µM
# [2] = second compound 0.0316 µM, first compound 0.1 µM
# [3] = second compound 0.0316 µM, first compound 0.316 µM
# [4] = second compound 0.0316 µM, first compound 1 µM
# [5] = second compound 0.0316 µM, first compound 3.16 µM
# [6] = second compound 0.0316 µM, first compound 10 µM
# [7] = second compound 0.1 µM, first compound 0.0316 µM
# [8] = second compound 0.1 µM, first compound 0.1 µM
# [9] = second compound 0.1 µM, first compound 0.316 µM
# [10] = second compound 0.1 µM, first compound 1 µM
# [11] = second compound 0.1 µM, first compound 3.16 µM
# [12] = second compound 0.1 µM, first compound 10 µM
# [13] = second compound 0.316 µM, first compound 0.0316 µM
# [14] = second compound 0.316 µM, first compound 0.1 µM
# [15] = second compound 0.316 µM, first compound 0.316 µM
# [16] = second compound 0.316 µM, first compound 1 µM
# [17] = second compound 0.316 µM, first compound 3.16 µM
# [18] = second compound 0.316 µM, first compound 10 µM
# [19] = second compound 1 µM, first compound 0.0316 µM
# [20] = second compound 1 µM, first compound 0.1 µM
# [21] = second compound 1 µM, first compound 0.316 µM
# [22] = second compound 1 µM, first compound 1 µM
# [23] = second compound 1 µM, first compound 3.16 µM
# [24] = second compound 1 µM, first compound 10 µM
# [25] = second compound 3.16 µM, first compound 0.0316 µM
# [26] = second compound 3.16 µM, first compound 0.1 µM
# [27] = second compound 3.16 µM, first compound 0.316 µM
# [28] = second compound 3.16 µM, first compound 1 µM
# [29] = second compound 3.16 µM, first compound 3.16 µM
# [30] = second compound 3.16 µM, first compound 10 µM
# [31] = second compound 10 µM, first compound 0.0316 µM
# [32] = second compound 10 µM, first compound 0.1 µM
# [33] = second compound 10 µM, first compound 0.316 µM
# [34] = second compound 10 µM, first compound 1 µM
# [35] = second compound 10 µM, first compound 3.16 µM
# [36] = second compound 10 µM, first compound 10 µM
# 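Note: spheroids exposed to drugs for one week before readout.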
# 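Throughout, for viability, T/C: percent viability relative to DMSO vehicle control wells set as 100%.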
compound,measurement,setting,value
CC1COCCN1c1cc(C2(S(C)(=N)=O)CC2)nc(-c2ccnc3[nH]ccc23)n1 (stereo not drawn) + Nc1ccc(C#CCN(C(=O)Cc2ncc(C(F)(F)F)cc2C(F)(F)F)c2ccc(F)cc2)nn1,IC50,second compound 0.0316 µM,5200 nM
same,IC50,second compound 0.1 µM,4680 nM
same,IC50,second compound 0.316 µM,5470 nM
same,IC50,second compound 1 µM,4850 nM
same,IC50,second compound 3.16 µM,3930 nM
same,IC50,second compound 10 µM,5630 nM
same,"viability, T/C",[1],111%
same,"viability, T/C",[2],108%
same,"viability, T/C",[3],93.2%
same,"viability, T/C",[4],82.3%
same,"viability, T/C",[5],71%
same,"viability, T/C",[6],28.3%
same,"viability, T/C",[7],111%
same,"viability, T/C",[8],110%
same,"viability, T/C",[9],97.4%
same,"viability, T/C",[10],77.9%
same,"viability, T/C",[11],63.6%
same,"viability, T/C",[12],28.9%
same,"viability, T/C",[13],99.4%
same,"viability, T/C",[14],104%
same,"viability, T/C",[15],91.9%
same,"viability, T/C",[16],84.3%
same,"viability, T/C",[17],65.9%
same,"viability, T/C",[18],32.8%
same,"viability, T/C",[19],103%
same,"viability, T/C",[20],106%
same,"viability, T/C",[21],90.4%
same,"viability, T/C",[22],80%
same,"viability, T/C",[23],64.4%
same,"viability, T/C",[24],28.9%
same,"viability, T/C",[25],100%
same,"viability, T/C",[26],98.9%
same,"viability, T/C",[27],99.5%
same,"viability, T/C",[28],92.6%
same,"viability, T/C",[29],54.7%
same,"viability, T/C",[30],29.7%
same,"viability, T/C",[31],98.5%
same,"viability, T/C",[32],90.6%
same,"viability, T/C",[33],87.9%
same,"viability, T/C",[34],90.9%
same,"viability, T/C",[35],70.2%
same,"viability, T/C",[36],29.8%
CCc1cc2c(N3CCc4c(cc(Cn5ccnc5)cc4-c4cn(C)nc4C(F)(F)F)C3=O)cc(C)nc2c(OC)n1 + Nc1ccc(C#CCN(C(=O)Cc2ncc(C(F)(F)F)cc2C(F)(F)F)c2ccc(F)cc2)nn1,IC50,second compound 0.0316 µM,1130 nM
same,IC50,second compound 0.1 µM,426 nM
same,IC50,second compound 0.316 µM,829 nM
same,IC50,second compound 1 µM,478 nM
same,IC50,second compound 3.16 µM,728 nM
same,IC50,second compound 10 µM,503 nM
same,"viability, T/C",[1],86.9%
same,"viability, T/C",[2],66.6%
same,"viability, T/C",[3],65.4%
same,"viability, T/C",[4],43.6%
same,"viability, T/C",[5],51.3%
same,"viability, T/C",[6],33.6%
same,"viability, T/C",[7],90.7%
same,"viability, T/C",[8],66.7%
same,"viability, T/C",[9],52.7%
same,"viability, T/C",[10],40.9%
same,"viability, T/C",[11],42.1%
same,"viability, T/C",[12],28.2%
same,"viability, T/C",[13],83%
same,"viability, T/C",[14],70.4%
same,"viability, T/C",[15],55%
same,"viability, T/C",[16],47.8%
same,"viability, T/C",[17],44.1%
same,"viability, T/C",[18],27.6%
same,"viability, T/C",[19],69.3%
same,"viability, T/C",[20],69.8%
same,"viability, T/C",[21],56.6%
same,"viability, T/C",[22],37.9%
same,"viability, T/C",[23],43.5%
same,"viability, T/C",[24],30.1%
same,"viability, T/C",[25],76.3%
same,"viability, T/C",[26],58.2%
same,"viability, T/C",[27],57%
same,"viability, T/C",[28],47.2%
same,"viability, T/C",[29],46.9%
same,"viability, T/C",[30],31.6%
same,"viability, T/C",[31],60.2%
same,"viability, T/C",[32],63.8%
same,"viability, T/C",[33],53.8%
same,"viability, T/C",[34],39.6%
same,"viability, T/C",[35],42%
same,"viability, T/C",[36],27.2%
CCc1cc2c(N3CCc4c(cc(Cn5ccnc5)cc4-c4cn(C)nc4C(F)(F)F)C3=O)ccnc2c(OC)n1 + Nc1ccc(C#CCN(C(=O)Cc2ncc(C(F)(F)F)cc2C(F)(F)F)c2ccc(F)cc2)nn1,IC50,second compound 0.0316 µM,1060 nM
same,IC50,second compound 0.1 µM,879 nM
same,IC50,second compound 0.316 µM,713 nM
same,IC50,second compound 1 µM,931 nM
same,IC50,second compound 3.16 µM,578 nM
same,IC50,second compound 10 µM,757 nM
same,"viability, T/C",[1],88.5%
same,"viability, T/C",[2],73.4%
same,"viability, T/C",[3],59.6%
same,"viability, T/C",[4],54.3%
same,"viability, T/C",[5],38.7%
same,"viability, T/C",[6],26.6%
same,"viability, T/C",[7],81.5%
same,"viability, T/C",[8],77.6%
same,"viability, T/C",[9],59.8%
same,"viability, T/C",[10],49.8%
same,"viability, T/C",[11],36.8%
same,"viability, T/C",[12],29.6%
same,"viability, T/C",[13],88.8%
same,"viability, T/C",[14],73.4%
same,"viability, T/C",[15],53.4%
same,"viability, T/C",[16],48.1%
same,"viability, T/C",[17],41.2%
same,"viability, T/C",[18],29.4%
same,"viability, T/C",[19],83.7%
same,"viability, T/C",[20],67.3%
same,"viability, T/C",[21],62.4%
same,"viability, T/C",[22],45.3%
same,"viability, T/C",[23],44.8%
same,"viability, T/C",[24],33.3%
same,"viability, T/C",[25],68.3%
same,"viability, T/C",[26],70.5%
same,"viability, T/C",[27],58%
same,"viability, T/C",[28],41.7%
same,"viability, T/C",[29],38.2%
same,"viability, T/C",[30],31.7%
same,"viability, T/C",[31],86.4%
same,"viability, T/C",[32],67.2%
same,"viability, T/C",[33],59.8%
same,"viability, T/C",[34],48.5%
same,"viability, T/C",[35],37.3%
same,"viability, T/C",[36],32.4%
COc1cc2cc(C(=O)CCC(=O)O)sc2cc1OC + Nc1ccc(C#CCN(C(=O)Cc2ncc(C(F)(F)F)cc2C(F)(F)F)c2ccc(F)cc2)nn1,IC50,second compound 0.0316 µM,> 10000 nM
same,IC50,second compound 0.1 µM,> 10000 nM
same,IC50,second compound 0.316 µM,> 10000 nM
same,IC50,second compound 1 µM,> 10000 nM
same,IC50,second compound 3.16 µM,> 10000 nM
same,IC50,second compound 10 µM,> 10000 nM
same,"viability, T/C",[1],101%
same,"viability, T/C",[2],99.4%
same,"viability, T/C",[3],104%
same,"viability, T/C",[4],98.5%
same,"viability, T/C",[5],104%
same,"viability, T/C",[6],70%
same,"viability, T/C",[7],111%
same,"viability, T/C",[8],97.8%
same,"viability, T/C",[9],91.1%
same,"viability, T/C",[10],96.4%
same,"viability, T/C",[11],104%
same,"viability, T/C",[12],103%
same,"viability, T/C",[13],110%
same,"viability, T/C",[14],105%
same,"viability, T/C",[15],107%
same,"viability, T/C",[16],102%
same,"viability, T/C",[17],112%
same,"viability, T/C",[18],99.9%
same,"viability, T/C",[19],111%
same,"viability, T/C",[20],108%
same,"viability, T/C",[21],90.4%
same,"viability, T/C",[22],101%
same,"viability, T/C",[23],112%
same,"viability, T/C",[24],85.1%
same,"viability, T/C",[25],110%
same,"viability, T/C",[26],93.9%
same,"viability, T/C",[27],105%
same,"viability, T/C",[28],101%
same,"viability, T/C",[29],104%
same,"viability, T/C",[30],88.4%
same,"viability, T/C",[31],89.3%
same,"viability, T/C",[32],101%
same,"viability, T/C",[33],83.4%
same,"viability, T/C",[34],85.2%
same,"viability, T/C",[35],96.4%
same,"viability, T/C",[36],87.8%
